Measured values taken from PubChem BioAssay AID1963836 (Molecular Pharmacology Branch, DTP, NCI, 2024).

Test system: 857933-349-R-J2-PDC complex spheroid viability
Assay: Anticancer human tumor 857933-349-R-J2-PDC patient-derived colon adenocarcinoma cell line growth inhibition [POLQ]
Settings: for IC50: curve of first compound; for viability, T/C: stronger effect = lower value
In short: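 PDC + HUVEC + MSC complex spheroids; POLQ inhibitors ± partner drugs; top conc. at/near clinical Cmax, else 10 microM (SN-38 1 microM), half-log dilutions; 37 degrees C, 5% CO2.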

[1] = second compound 0.0316 µM, first compound 0.0316 µM
[2] = second compound 0.0316 µM, first compound 0.1 µM
[3] = second compound 0.0316 µM, first compound 0.316 µM
[4] = second compound 0.0316 µM, first compound 1 µM
[5] = second compound 0.0316 µM, first compound 3.16 µM
[6] = second compound 0.0316 µM, first compound 10 µM
[7] = second compound 0.1 µM, first compound 0.0316 µM
[8] = second compound 0.1 µM, first compound 0.1 µM
[9] = second compound 0.1 µM, first compound 0.316 µM
[10] = second compound 0.1 µM, first compound 1 µM
[11] = second compound 0.1 µM, first compound 3.16 µM
[12] = second compound 0.1 µM, first compound 10 µM
[13] = second compound 0.316 µM, first compound 0.0316 µM
[14] = second compound 0.316 µM, first compound 0.1 µM
[15] = second compound 0.316 µM, first compound 0.316 µM
[16] = second compound 0.316 µM, first compound 1 µM
[17] = second compound 0.316 µM, first compound 3.16 µM
[18] = second compound 0.316 µM, first compound 10 µM
[19] = second compound 1 µM, first compound 0.0316 µM
[20] = second compound 1 µM, first compound 0.1 µM
[21] = second compound 1 µM, first compound 0.316 µM
[22] = second compound 1 µM, first compound 1 µM
[23] = second compound 1 µM, first compound 3.16 µM
[24] = second compound 1 µM, first compound 10 µM
[25] = second compound 3.16 µM, first compound 0.0316 µM
[26] = second compound 3.16 µM, first compound 0.1 µM
[27] = second compound 3.16 µM, first compound 0.316 µM
[28] = second compound 3.16 µM, first compound 1 µM
[29] = second compound 3.16 µM, first compound 3.16 µM
[30] = second compound 3.16 µM, first compound 10 µM
[31] = second compound 10 µM, first compound 0.0316 µM
[32] = second compound 10 µM, first compound 0.1 µM
[33] = second compound 10 µM, first compound 0.316 µM
[34] = second compound 10 µM, first compound 1 µM
[35] = second compound 10 µM, first compound 3.16 µM
[36] = second compound 10 µM, first compound 10 µM
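Note: spheroids exposed to compounds for seven days before readout.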

SMILES: CCc1cc2c(N3CCc4c(cc(Cn5ccnc5)cc4-c4cn(C)nc4C(F)(F)F)C3=O)cc(C)nc2c(OC)n1 + Nc1ccc(C#CCN(C(=O)Cc2ncc(C(F)(F)F)cc2C(F)(F)F)c2ccc(F)cc2)nn1
- IC50 (second compound 0.0316 µM): > 10 µM
- IC50 (second compound 0.1 µM): > 10 µM
- IC50 (second compound 0.316 µM): > 10 µM
- IC50 (second compound 1 µM): > 10 µM
- IC50 (second compound 3.16 µM): > 10 µM
- IC50 (second compound 10 µM): > 10 µM
- viability, T/C [1]: 94.9%
- viability, T/C [2]: 92.8%
- viability, T/C [3]: 80.3%
- viability, T/C [4]: 79.8%
- viability, T/C [5]: 67.4%
- viability, T/C [6]: 62.8%
- viability, T/C [7]: 92%
- viability, T/C [8]: 101%
- viability, T/C [9]: 76.2%
- viability, T/C [10]: 73.5%
- viability, T/C [11]: 77.7%
- viability, T/C [12]: 55.1%
- viability, T/C [13]: 89%
- viability, T/C [14]: 86.8%
- viability, T/C [15]: 86.5%
- viability, T/C [16]: 81%
- viability, T/C [17]: 65.7%
- viability, T/C [18]: 57.1%
- viability, T/C [19]: 95.9%
- viability, T/C [20]: 96.9%
- viability, T/C [21]: 86.8%
- viability, T/C [22]: 78.8%
- viability, T/C [23]: 75.3%
- viability, T/C [24]: 51.4%
- viability, T/C [25]: 87.8%
- viability, T/C [26]: 87%
- viability, T/C [27]: 97.7%
- viability, T/C [28]: 69.3%
- viability, T/C [29]: 64.3%
- viability, T/C [30]: 59.5%
- viability, T/C [31]: 90.2%
- viability, T/C [32]: 78.5%
- viability, T/C [33]: 75%
- viability, T/C [34]: 65.5%
- viability, T/C [35]: 53.5%
- viability, T/C [36]: 53.4%

SMILES: CCc1cc2c(N3CCc4c(cc(Cn5ccnc5)cc4-c4cn(C)nc4C(F)(F)F)C3=O)ccnc2c(OC)n1 + Nc1ccc(C#CCN(C(=O)Cc2ncc(C(F)(F)F)cc2C(F)(F)F)c2ccc(F)cc2)nn1
- IC50 (second compound 0.0316 µM): > 10 µM
- IC50 (second compound 0.1 µM): > 10 µM
- IC50 (second compound 0.316 µM): > 10 µM
- IC50 (second compound 1 µM): > 10 µM
- IC50 (second compound 3.16 µM): > 10 µM
- IC50 (second compound 10 µM): 6.06 µM
- viability, T/C [1]: 93.9%
- viability, T/C [2]: 96.4%
- viability, T/C [3]: 76.3%
- viability, T/C [4]: 87.7%
- viability, T/C [5]: 59.2%
- viability, T/C [6]: 59.2%
- viability, T/C [7]: 97.3%
- viability, T/C [8]: 101%
- viability, T/C [9]: 94.5%
- viability, T/C [10]: 93%
- viability, T/C [11]: 70%
- viability, T/C [12]: 58.5%
- viability, T/C [13]: 82%
- viability, T/C [14]: 86%
- viability, T/C [15]: 94.5%
- viability, T/C [16]: 84.1%
- viability, T/C [17]: 77%
- viability, T/C [18]: 55.1%
- viability, T/C [19]: 97.6%
- viability, T/C [20]: 90.2%
- viability, T/C [21]: 95.1%
- viability, T/C [22]: 77.2%
- viability, T/C [23]: 71.1%
- viability, T/C [24]: 65.3%
- viability, T/C [25]: 97.6%
- viability, T/C [26]: 89.9%
- viability, T/C [27]: 104%
- viability, T/C [28]: 83%
- viability, T/C [29]: 68.3%
- viability, T/C [30]: 62.8%
- viability, T/C [31]: 83.5%
- viability, T/C [32]: 77.3%
- viability, T/C [33]: 79.6%
- viability, T/C [34]: 75.7%
- viability, T/C [35]: 54.4%
- viability, T/C [36]: 46.6%

SMILES: COc1cc2cc(C(=O)CCC(=O)O)sc2cc1OC + Nc1ccc(C#CCN(C(=O)Cc2ncc(C(F)(F)F)cc2C(F)(F)F)c2ccc(F)cc2)nn1
- IC50 (second compound 0.0316 µM): > 10 µM
- IC50 (second compound 0.1 µM): > 10 µM
- IC50 (second compound 0.316 µM): > 10 µM
- IC50 (second compound 1 µM): > 10 µM
- IC50 (second compound 3.16 µM): > 10 µM
- IC50 (second compound 10 µM): > 10 µM
- viability, T/C [1]: 103%
- viability, T/C [2]: 110%
- viability, T/C [3]: 108%
- viability, T/C [4]: 111%
- viability, T/C [5]: 100%
- viability, T/C [6]: 104%
- viability, T/C [7]: 100%
- viability, T/C [8]: 106%
- viability, T/C [9]: 101%
- viability, T/C [10]: 110%
- viability, T/C [11]: 108%
- viability, T/C [12]: 97.5%
- viability, T/C [13]: 96.5%
- viability, T/C [14]: 97.3%
- viability, T/C [15]: 98.2%
- viability, T/C [16]: 92.4%
- viability, T/C [17]: 106%
- viability, T/C [18]: 96%
- viability, T/C [19]: 103%
- viability, T/C [20]: 93.3%
- viability, T/C [21]: 97.5%
- viability, T/C [22]: 109%
- viability, T/C [23]: 110%
- viability, T/C [24]: 89.1%
- viability, T/C [25]: 102%
- viability, T/C [26]: 98.7%
- viability, T/C [27]: 90.7%
- viability, T/C [28]: 89.7%
- viability, T/C [29]: 104%
- viability, T/C [30]: 103%
- viability, T/C [31]: 93.7%
- viability, T/C [32]: 78.3%
- viability, T/C [33]: 98.9%
- viability, T/C [34]: 97.6%
- viability, T/C [35]: 108%
- viability, T/C [36]: 78.4%

SMILES: O=C(Nc1ccc(O)c(NS(=O)(=O)c2ccc(F)cc2)c1)c1ccc(-c2ccccc2)cc1 + Nc1ccc(C#CCN(C(=O)Cc2ncc(C(F)(F)F)cc2C(F)(F)F)c2ccc(F)cc2)nn1
- IC50 (second compound 0.0316 µM): > 10 µM
- IC50 (second compound 0.1 µM): > 10 µM
- IC50 (second compound 0.316 µM): > 10 µM
- IC50 (second compound 1 µM): > 10 µM
- IC50 (second compound 3.16 µM): > 10 µM
- IC50 (second compound 10 µM): > 10 µM
- viability, T/C [1]: 95.1%
- viability, T/C [2]: 108%
- viability, T/C [3]: 103%
- viability, T/C [4]: 111%
- viability, T/C [5]: 110%
- viability, T/C [6]: 92%
- viability, T/C [7]: 90.1%
- viability, T/C [8]: 96.6%
- viability, T/C [9]: 97%
- viability, T/C [10]: 103%
- viability, T/C [11]: 119%
- viability, T/C [12]: 103%
- viability, T/C [13]: 84.2%
- viability, T/C [14]: 98.8%
- viability, T/C [15]: 91.2%
- viability, T/C [16]: 102%
- viability, T/C [17]: 110%
- viability, T/C [18]: 98.8%
- viability, T/C [19]: 90.7%
- viability, T/C [20]: 106%
- viability, T/C [21]: 101%
- viability, T/C [22]: 97.9%
- viability, T/C [23]: 89.7%
- viability, T/C [24]: 94.2%
- viability, T/C [25]: 97%
- viability, T/C [26]: 96.2%
- viability, T/C [27]: 104%
- viability, T/C [28]: 85.1%
- viability, T/C [29]: 104%
- viability, T/C [30]: 99.7%
- viability, T/C [31]: 103%
- viability, T/C [32]: 105%
- viability, T/C [33]: 98.6%
- viability, T/C [34]: 107%
- viability, T/C [35]: 90.8%
- viability, T/C [36]: 113%
